Earlier results as cited in patent publication US20060292216A1, “Enteric delivery of (-)-hydroxycitric acid” (priority 2003, published 2006).

Legend:
[1] = test system: test subjects; details: chronic administration; resting and exercising conditions
[2] = test system: human hepatoma cell line Hep G2
[3] = test system: humans; details: conditions that elevate de novo lipogenesis
[4] = test system: experimental animals fed a high-sugar diet; details: single large oral dose or two divided oral doses totaling one fourth of it
[5] = test system: middle-aged rats fed a 30% fat diet

SMILES | respiratory exchange ratio [1] | cholesterol biosynthesis, of the control value, by incorporation from 3H2O [2] | incorporation of [1,5-14C]citrate into fatty acids and cholesterol ([2]; 0.5 mM or higher, 2.5 h and 18 h incubations) | fat synthesis and energy expenditure [3] | reduction in food consumption [4] [%] | protein and fat as percentage of body weight [5]
O=C(O)CC(O)(C(=O)O)C(O)C(=O)O (single isomer, unassigned; (-)) [HCA, (−)-hydroxycitric acid] | significantly lower | 27 % of the control value | strongly inhibited | reduced fat synthesis and increased energy expenditure | ≥ 10 | –
O=C([O-])CC(O)(C(=O)[O-])C(O)C(=O)[O-].[K+].[K+].[K+] (stereo not drawn) [potassium HCA] | – | – | – | – | – | increased protein as a percentage of body weight while reducing fat as a percentage of body weight
